Patent US20020183518A1, “Modulators of proteins with phosphotyrosine recognition units” (ONTOGEN CORPORATION, priority 1995, published 2002)

Assays:
Assay type in all cases: biochemical
[1] = target: T1, PTP-1B (Homo sapiens, UniProt P18031); experiment: In vitro PTPase inhibition assay (pNPP, colorimetric), PTP-1B; details: for % inhibition of PTP1B at 1 μM: Table 8, 1 μM compound; for IC50: Table 9, read-out: IC50 values against PTP1B
T1 construct: known to encode a 321 amino acid fragment containing the PTP-1B catalytic domain and having PTPase activity; made in house; host or cells: E. coli DH5α, plasmid pGEX-3X-PTP-1B
T1 sequence (P18031 3-277 limits assumed): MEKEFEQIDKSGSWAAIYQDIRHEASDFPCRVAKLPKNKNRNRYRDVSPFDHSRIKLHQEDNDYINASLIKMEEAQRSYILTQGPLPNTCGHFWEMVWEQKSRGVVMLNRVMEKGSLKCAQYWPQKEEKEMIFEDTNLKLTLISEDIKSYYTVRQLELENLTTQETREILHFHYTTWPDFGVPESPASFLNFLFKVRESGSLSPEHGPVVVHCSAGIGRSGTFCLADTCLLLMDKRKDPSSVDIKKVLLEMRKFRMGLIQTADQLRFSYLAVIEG
Description: PTP-1B enzymatic activity of samples was assayed in microtiter plates as follows. The protein concentration of the PTP-1B enzyme preparation was determined using the Bio-Rad Protein Assay kit (Bio-Rad, Hercules Calif.). […] Reactions were mixed gently and incubated at 37° C. for 60 minutes. Enzymatic cleavage of phosphate from pNPP (a tyrosine phosphate analog) is marked by a colorimetric change in this substrate. See, e.g., Imbert et al., Biochem J., 297:163-173 (1994); Ghosh and Miller, Biochem. Biophys. Res. […] Zanke et al., Eur. J. […] To determine the enzymatic activity, absorbance readings of the reactions were measured at 405 nm using a Molecular Devices Thermomax Plate Reader (Menlo Park Calif.). […] Purified phosphatase was added to the reaction mixtures to begin the reactions; the reactions were incubated at 37° C. for 60 min. […] (for PTP-1C and PTPα assays), stopped, and colorimetrically analyzed as described above. […] First, absorbance readings from the negative control reactions were treated as a baseline and subtracted from the absorbance readings of the experimental reactions. Then, for each reaction, a percent inhibition was calculated using the following formula: […] For each inhibitor compound tested, an IC50 concentration was calculated from a best-fit computer analysis of the calculated percent inhibition for the various dilutions of the compound. PTP-1B enzymatic activity of samples was assayed in microtiter plates as follows. The protein concentration of the PTP-1B enzyme preparation was determined using the Bio-Rad Protein Assay kit (Bio-Rad, Hercules Calif.). […] Reactions were mixed gently and incubated at 37° C. for 60 minutes. Enzymatic cleavage of phosphate from pNPP (a tyrosine phosphate analog) is marked by a colorimetric change in this substrate. See, e.g., Imbert et al., Biochem J., 297:163-173 (1994); Ghosh and Miller, Biochem. Biophys. Res. […] Zanke et al., Eur. […] To determine the enzymatic activity, absorbance readings of the reactions were measured at 405 nm using a Molecular Devices Thermomax Plate Reader (Menlo Park Calif.). […] Purified phosphatase was added to the reaction mixtures to begin the reactions; the reactions were incubated at 37° C. for 60 min. […] (for PTP-1C and PTPα assays), stopped, and calorimetrically analyzed as described above. […] First, absorbance readings from the negative control reactions were treated as a baseline and subtracted from the absorbance readings of the experimental reactions. Then, for each reaction, a percent inhibition was calculated using the following formula: […] For each inhibitor compound tested, an IC50 concentration was calculated from a best-fit computer analysis of the calculated percent inhibition for the various dilutions of the compound.

[2] = target: PTPα (Homo sapiens, UniProt P18433); experiment: In vitro PTPase inhibition assay (pNPP, colorimetric), PTPα; details: Table 8; 100 μM compound
Description: (§1) The ability of the compounds of the present invention, such as the cinnamic 4 acid derivative compounds of Example 2, to inhibit the PTPase activity of PTP-1B, CD45, PTP-1C, and PTPα was determined using modifications of the PTP-1B and CD45 activity assays described in Examples 3 and 4.
(§2) First, 0.001 mmol of the cinnamic acid derivative (or other PTPase inhibitor compound) was dissolved in 100 ul of DMSO to create a 10 mM stock solution. The 10 mM stock solution was used to add varying concentrations (100 uM, 133 uM, 10 uM, 3 uM, 1 uM, 0.3 uM, 0.1 uM, 0.03 uM, 0.01 uM or 0.003 uM) of the inhibitor compound to a series of otherwise identical PTPase activity assay reactions (100 ul final volume in microtiter wells). Thus, each 100 ul reaction contained 10 ul PTPase enzyme stock solution (final phosphatase concentration of approximately 20 ng/well), 70 ul activity assay buffer, 10 ul pNPP stock solution (final pNPP concentration of 0.9 mM for PTP-1B assay, 0.93 mM for CD45 assay, 0.5 mM for PTPα assay, and 8 mM for PTP-1C assay), and 10 ul of the diluted inhibitor compound in DMSO. Assay buffers contained: for CD45 and PTP-1B assays, 100 mM sodium acetate at pH 6.0, 1 mM EDTA, 0.1% Triton X-100, and 15 mM bME; for PTP-1C assays, 100 mM sodium acetate at pH 5.5, 0.1% BSA, and 15 mM bME; for PTPα assays, 100 mM sodium acetate at pH 5.25, 0.1% BSA, and 15 mM bME. Purified phosphatase was added to the reaction mixtures to begin the reactions; the reactions were incubated at 37° C. for 60 min. (for PTP-1B and CD45 assays) or at 27° C. for 60 min. (for PTP-1C and PTPα assays), stopped, and colorimetrically analyzed as described above. As positive and negative controls, reactions were performed containing 10 ul DMSO with no inhibitor compound or containing the known PTPase inhibitors vanadate (final concentration 0.5 mM; for PTP-1B and CD45 assays) or ammonium molybdate (final concentration 1 mM; for PTP-1C and PTPα assays) substituted for the inhibitor compound of the invention.
(§3) The concentration of inhibitor compound required to inhibit 50% of the PTPase activity (IC50) was determined as follows. First, absorbance readings from the negative control reactions were treated as a baseline and subtracted from the absorbance readings of the experimental reactions. Then, for each reaction, a percent inhibition was calculated using the following formula: […]
(§4) The ability of the compounds of the present invention, such as the cinnamic acid derivative compounds of Example 2, to inhibit the PTPase activity of PTP-1B, CD45, PTP-1C, and PTPα was determined using modifications of the PTP-1B and CD45 activity assays described in Examples 3 and 4.
as §2, with “uM, 33” for “uM, 133”, “EDTA, 0. 1%” for “EDTA, 0.1%”, “at 27 C” for “at 27° C.”, “min.” for “min. (for PTP-1C and PTPα assays), stopped, and colorimetrically analyzed as described above. As positive and negative controls, reactions were performed containing 10 ul DMSO with no inhibitor compound or containing the known PTPase inhibitors vanadate (final concentration 0.5 mM; for PTP-1B and CD45 assays) or ammonium molybdate (final concentration 1 mM; for PTP-1C and PTPα assays) substituted for the inhibitor compound of the invention.”

[3] = target: PTP-1C (Homo sapiens, UniProt P29350); experiment: In vitro PTPase inhibition assay (pNPP, colorimetric), PTP-1C; details: Table 8; 100 μM compound
Description: as §1, §2, §3, §4
as §2, with “uM, 33” for “uM, 133”, “EDTA, 0. 1%” for “EDTA, 0.1%”, “at 27 C” for “at 27° C.”, “min.” for “min. (for PTP-1C and PTPα assays), stopped, and colorimetrically analyzed as described above. As positive and negative controls, reactions were performed containing 10 ul DMSO with no inhibitor compound or containing the known PTPase inhibitors vanadate (final concentration 0.5 mM; for PTP-1B and CD45 assays) or ammonium molybdate (final concentration 1 mM; for PTP-1C and PTPα assays) substituted for the inhibitor compound of the invention.”

[4] = target: T2, CD45 (Homo sapiens, UniProt P08575); experiment: In vitro PTPase inhibition assay (pNPP, colorimetric), CD45; details: Table 9; read-out: IC50 values against CD45
T2 construct: The PCR reaction product (2127 bp) was digested with Sma I (New England Biolabs, Beverly Mass.) to yield a 2110 bp product; made in house; host or cells: E. coli DH5α, plasmid pET24C-CD45
T2 sequence (P08575 599-1306 limits assumed): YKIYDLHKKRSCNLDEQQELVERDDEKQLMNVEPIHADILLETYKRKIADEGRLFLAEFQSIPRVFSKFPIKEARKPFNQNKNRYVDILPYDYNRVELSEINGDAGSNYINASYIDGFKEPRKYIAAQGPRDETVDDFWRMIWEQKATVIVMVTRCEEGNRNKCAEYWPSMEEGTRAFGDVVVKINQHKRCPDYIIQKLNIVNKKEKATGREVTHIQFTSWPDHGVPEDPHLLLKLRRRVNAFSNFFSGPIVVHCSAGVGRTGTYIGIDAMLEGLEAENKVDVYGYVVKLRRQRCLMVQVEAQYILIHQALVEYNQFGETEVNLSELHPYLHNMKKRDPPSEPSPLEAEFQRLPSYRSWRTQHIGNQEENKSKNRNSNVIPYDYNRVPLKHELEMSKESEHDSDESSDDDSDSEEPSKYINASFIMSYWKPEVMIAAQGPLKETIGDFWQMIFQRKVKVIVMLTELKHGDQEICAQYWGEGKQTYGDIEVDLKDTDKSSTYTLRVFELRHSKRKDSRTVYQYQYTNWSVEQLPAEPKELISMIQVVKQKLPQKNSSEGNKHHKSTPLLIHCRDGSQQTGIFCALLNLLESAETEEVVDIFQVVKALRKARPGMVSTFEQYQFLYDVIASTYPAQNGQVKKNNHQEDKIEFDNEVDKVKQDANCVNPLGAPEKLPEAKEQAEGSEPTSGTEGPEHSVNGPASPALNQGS
Description: CD45 enzymatic activity of samples was assayed in microtiter plates as follows. […] Louis Mo.), and 80 ul of activity assay buffer (100 mM sodium acetate, pH 6.0, 1 mM EDTA, 0.1% Triton X-100, 15 mM bME). Reactions were mixed gently and incubated at 37° C. for 60 minutes. […] To determine the enzymatic activity, absorbance readings of the reactions were measured at 405 nm using a Molecular Devices Thermomax Plate Reader (Menlo Park Calif.). […] Purified phosphatase was added to the reaction mixtures to begin the reactions; the reactions were incubated at 37° C. for 60 min. […] (for PTP-1C and PTPα assays), stopped, and colorimetrically analyzed as described above. […] First, absorbance readings from the negative control reactions were treated as a baseline and subtracted from the absorbance readings of the experimental reactions. Then, for each reaction, a percent inhibition was calculated using the following formula: […] For each inhibitor compound tested, an IC50 concentration was calculated from a best-fit computer analysis of the calculated percent inhibition for the various dilutions of the compound. CD45 enzymatic activity of samples was assayed in microtiter plates as follows. […] Louis Mo.), and 80 ul of activity assay buffer (100 mM sodium acetate, pH 6.0, 1 mM EDTA, 0. 1% Triton X-100, 15 mM bME). Reactions were mixed gently and incubated at 37° C. for 60 minutes. […] To determine the enzymatic activity, absorbance readings of the reactions were measured at 405 nm using a Molecular Devices Thermomax Plate Reader (Menlo Park Calif.). […] Purified phosphatase was added to the reaction mixtures to begin the reactions; the reactions were incubated at 37° C. for 60 min. […] (for PTP-1C and PTPα assays), stopped, and calorimetrically analyzed as described above. […] First, absorbance readings from the negative control reactions were treated as a baseline and subtracted from the absorbance readings of the experimental reactions. Then, for each reaction, a percent inhibition was calculated using the following formula: […] For each inhibitor compound tested, an IC50 concentration was calculated from a best-fit computer analysis of the calculated percent inhibition for the various dilutions of the compound.

Sequence of PTP-1C (P29350 whole entry, species assumed): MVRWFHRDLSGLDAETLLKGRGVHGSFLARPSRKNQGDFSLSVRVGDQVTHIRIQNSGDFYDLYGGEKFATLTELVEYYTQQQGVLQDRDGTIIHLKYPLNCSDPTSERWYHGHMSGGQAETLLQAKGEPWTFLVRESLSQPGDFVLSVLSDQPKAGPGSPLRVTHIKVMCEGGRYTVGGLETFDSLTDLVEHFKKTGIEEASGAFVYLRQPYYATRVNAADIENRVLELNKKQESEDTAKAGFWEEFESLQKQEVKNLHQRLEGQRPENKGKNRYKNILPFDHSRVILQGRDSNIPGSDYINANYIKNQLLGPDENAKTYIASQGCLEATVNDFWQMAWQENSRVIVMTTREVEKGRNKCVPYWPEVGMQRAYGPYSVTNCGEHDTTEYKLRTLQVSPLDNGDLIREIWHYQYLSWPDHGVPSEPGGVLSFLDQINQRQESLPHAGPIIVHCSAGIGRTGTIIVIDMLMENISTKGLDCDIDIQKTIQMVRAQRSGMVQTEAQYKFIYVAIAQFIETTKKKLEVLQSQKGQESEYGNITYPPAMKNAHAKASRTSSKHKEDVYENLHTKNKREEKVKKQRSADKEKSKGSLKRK
Sequence of PTPα (P18433 20-802): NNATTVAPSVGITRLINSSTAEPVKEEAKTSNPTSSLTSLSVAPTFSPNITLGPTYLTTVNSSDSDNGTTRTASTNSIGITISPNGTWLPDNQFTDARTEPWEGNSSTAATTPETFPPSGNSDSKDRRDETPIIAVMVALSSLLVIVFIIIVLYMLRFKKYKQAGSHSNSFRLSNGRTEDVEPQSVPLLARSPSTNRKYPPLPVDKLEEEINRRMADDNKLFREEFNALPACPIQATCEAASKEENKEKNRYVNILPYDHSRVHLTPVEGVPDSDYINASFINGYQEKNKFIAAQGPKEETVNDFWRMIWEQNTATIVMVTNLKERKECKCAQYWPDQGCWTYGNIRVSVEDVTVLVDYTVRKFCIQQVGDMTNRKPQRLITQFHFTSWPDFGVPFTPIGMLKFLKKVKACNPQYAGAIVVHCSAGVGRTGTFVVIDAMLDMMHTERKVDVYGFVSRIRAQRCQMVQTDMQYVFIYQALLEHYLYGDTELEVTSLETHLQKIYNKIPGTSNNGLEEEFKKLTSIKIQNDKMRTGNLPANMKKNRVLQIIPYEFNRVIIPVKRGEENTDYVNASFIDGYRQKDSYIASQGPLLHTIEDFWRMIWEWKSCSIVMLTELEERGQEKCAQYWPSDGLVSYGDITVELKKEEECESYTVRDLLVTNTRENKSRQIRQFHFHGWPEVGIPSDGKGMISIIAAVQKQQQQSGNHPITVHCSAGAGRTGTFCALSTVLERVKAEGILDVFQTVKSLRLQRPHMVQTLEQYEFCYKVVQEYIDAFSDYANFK

Row | Structure (SMILES) | % inhibition of PTP1B at 1 μM [1] | % inhibition of PTPα at 100 μM [2] | % inhibition of PTP1C at 100 μM [3] | IC50 [1] | IC50 [4]
1 | O=C(O)/C=C/c1ccc(C(=O)OC(C(=O)NCCC(=O)O)c2ccc(Br)cc2)cc1 (racemic) [Compound 36] | 52% | 0% | 42% |  | 
2 | O=C(O)/C=C/c1ccc(C(=O)OC(C(=O)NCCCCCC(=O)O)c2ccc(Br)cc2)cc1 (racemic) [Compound 37] | 85% | 63% | 59% |  | 
3 | CCCCCCC(OC(=O)c1ccc(/C=C/C(=O)O)cc1)C(=O)NCCC(=O)O (racemic) [Compound 38] | 93% | 71% | 63% |  | 
4 | CCCCCCC(OC(=O)c1ccc(/C=C/C(=O)O)cc1)C(=O)NCCCCCC(=O)O (racemic) [Compound 39] | 82% | 47% | 53% |  | 
5 | O=C(O)/C=C/c1ccc(-c2nc3ccc(C(=O)O)cc3nc2-c2ccc(/C=C/C(=O)O)cc2)cc1 [Compound 155] |  |  |  | 1000 nM | 1300 nM
6 | COC(=O)c1ccc2nc(-c3ccc(/C=C/C(=O)O)cc3)c(-c3ccc(/C=C/C(=O)O)cc3)nc2c1 [Compound 156] |  |  |  | 1700 nM | 1300 nM
7 | O=C(O)/C=C/c1ccc(-c2nc3ccccc3nc2-c2ccc(/C=C/C(=O)O)cc2)cc1 [Compound 157] |  |  |  | 5500 nM | 1500 nM
8 | O=C(O)/C=C/c1ccc(-c2nc3cccnc3nc2-c2ccc(/C=C/C(=O)O)cc2)cc1 [Compound 160] |  |  |  | 980 nM | 1520 nM
